Data published in patent US20120052130A1, “GPR 119 MODULATORS” (Pfizer Inc., priority 2009, published 2012).

Molecular target: T1, human GPR119 (Homo sapiens, UniProt Q8TDV5)
T1 sequence (Q8TDV5 1-335): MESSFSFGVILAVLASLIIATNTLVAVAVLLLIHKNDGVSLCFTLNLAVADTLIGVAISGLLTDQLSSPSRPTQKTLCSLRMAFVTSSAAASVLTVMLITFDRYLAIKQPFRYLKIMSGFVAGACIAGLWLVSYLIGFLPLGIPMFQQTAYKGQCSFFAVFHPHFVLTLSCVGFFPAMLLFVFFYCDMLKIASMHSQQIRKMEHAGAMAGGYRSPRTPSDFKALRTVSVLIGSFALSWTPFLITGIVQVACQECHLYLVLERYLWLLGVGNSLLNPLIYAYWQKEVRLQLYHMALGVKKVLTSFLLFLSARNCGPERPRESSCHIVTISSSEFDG
Assay: GPR 119 radioligand binding assay ([3H]-Compound A or [3H]-Compound B, membranes of HEK 293FT cells over-expressing hGPR119)
Conditions: calculated from IC50 by Cheng-Prusoff; each line is a separate determination
Protocol: HEK 293FT cells (Invitrogen, Carlsbad, Calif.) were grown in a shake flask in 293Freestyle medium (Invitrogen) supplemented with 50 microg/mL neomycin and 10 mM HEPES (37 C, 8% carbon dioxide, shaking). The cells were centrifuged gently (approximately 500×g, 10 minutes) and the pellet resuspended in a mixture of Dulbecco's PBS(minus Mg++/−Ca++) supplemented with 18% fetal bovine serum (Sigma Aldrich) and P1 virus such that the multiplicity of infection (MOI) was 10 and the final cell density was 1.3×10^6/mL (total volume 2.5 liters). The cells were transferred to a 5 liter Wave Bioreactor Wavebag (Wave Technologies, MA) and incubated for 4 hours at 27 degrees Celsius (17 rocks/min, 7 degrees platform angle); at the end of the incubation period, an equal volume(2.5 liters) of 293Freestyle medium supplemented with 30 mM sodium butyrate (Sigma Aldrich) was added (final concentration=15 mM), and the cells were grown for 20 hours (37 degrees Celsius, 8% CO2 [0.2 liters/min}, 25 rocks/minute, 7 degrees platform angle). […]
The frozen cells were thawed on ice and centrifuged at 700×g (1400 rpm) for 10 minutes at 4 degrees Celsius. […] The protein concentration was determined using the Pierce BCA protein assay kit (Pierce reagents A #23223 and B #23224). […]

SMILES	Ki [µM]
Cc1c(O[C@@H]2[C@@H]3COC[C@H]2CN(C(=O)OC(C)C)C3)ncnc1N1CCc2cc(S(C)(=O)=O)ccc21 [Example 23, Isopropyl (9-syn)-9-({5-methyl-6-[5-(methylsulfonyl)-2,3-dihydro-1H-indol-1-yl]pyrimidin-4-yl}oxy)-3-oxa-7-azabicyclo[3.3.1]nonane-7-carboxylate]	0.13
Cc1c(O[C@@H]2[C@@H]3COC[C@H]2CN(C(=O)OC2(C)CC2)C3)ncnc1N1CCc2ncccc21 [Example 28, 1-Methylcyclopropyl (9-syn)-9-{[6-(2,3-dihydro-1H-pyrrolo[3,2-b]pyridin-1-yl)-5-methylpyrimidin-4-yl]oxy}-3-oxa-7-azabicyclo[3.3.1]nonane-7-carboxylate]	0.0458
